# Molecular target: T1, human red blood cell AChE (Homo sapiens, UniProt P22303)
# T1 construct: human red blood cell AChE; from tissue; host or cells: human red blood cells
# Assay: AChE reactivation assay with echothiophate-inhibited human red blood cell AChE
# Format: biochemical
# Settings: full dose-response curves; compared with 2-PAM
# T1 sequence (P22303 other isoform, or with tags, fused parts or gaps): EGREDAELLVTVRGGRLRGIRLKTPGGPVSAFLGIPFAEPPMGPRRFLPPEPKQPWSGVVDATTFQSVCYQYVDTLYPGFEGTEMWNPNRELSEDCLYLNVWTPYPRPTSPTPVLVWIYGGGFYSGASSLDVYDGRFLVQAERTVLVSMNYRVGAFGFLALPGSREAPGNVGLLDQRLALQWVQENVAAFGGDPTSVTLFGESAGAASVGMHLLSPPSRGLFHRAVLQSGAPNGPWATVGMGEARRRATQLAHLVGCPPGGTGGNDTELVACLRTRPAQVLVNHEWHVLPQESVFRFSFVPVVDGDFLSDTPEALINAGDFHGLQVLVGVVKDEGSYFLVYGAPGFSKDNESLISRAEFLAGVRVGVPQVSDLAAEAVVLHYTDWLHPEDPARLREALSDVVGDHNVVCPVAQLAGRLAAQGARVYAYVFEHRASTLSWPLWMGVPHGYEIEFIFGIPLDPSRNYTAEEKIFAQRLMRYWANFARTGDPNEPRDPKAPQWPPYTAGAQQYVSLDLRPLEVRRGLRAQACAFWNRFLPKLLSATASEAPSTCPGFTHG
row,SMILES,potency in reactivation relative to 2-PAM (full dose-response curves)
1,"ON=Cc1cc[n+](CCCCCCC[n+]2ccc(C=NO)cc2)cc1 [Compound 1b, 1,7-Heptylene-bis-N,N'-4-pyridiniumaldoxime dibromide]",ten-fold more potent

# Same assay, conditions: single concentration 10^-6 M, added for 1 hour; AChE inhibited by echothiophate 10^-7 M; means ± standard errors of 4 measurements
row,SMILES,Percentages of AChE reactivation [%]
1,"C[n+]1ccccc1C=NO [Compound 2-PAM, 2-pralidoxime, reference compound]",17 ± 2.8

# Same assay, conditions: single concentration 10^-6 M, added for 1 hour; AChE inhibited by echothiophate 10^-7 M; means ± standard errors of 4 measurements; read-out: Percentages of AChE reactivation
row,SMILES,activation at 1 µM [%]
1,"ON=Cc1cc[n+](CCCCCC[n+]2ccc(C=NO)cc2)cc1 [Compound 1a, 1,6-Hexylene-bis-N,N'-4-pyridiniumaldoxime dibromide]",47 ± 1.8
2,"ON=Cc1cc[n+](CCCCCCC[n+]2ccc(C=NO)cc2)cc1 [Compound 1b, 1,7-Heptylene-bis-N,N'-4-pyridiniumaldoxime dibromide]",61 ± 3.2
3,"ON=Cc1cc[n+](CCCCCCCC[n+]2ccc(C=NO)cc2)cc1 [Compound 1c, 1,8-Octylene-bis-N,N'-4-pyridiniumaldoxime dibromide]",44 ± 1.7
4,"ON=Cc1cc[n+](CCCCCCCCC[n+]2ccc(C=NO)cc2)cc1 [Compound 1d, 1,9-Nonylene-bis-N,N'-4-pyridiniumaldoxime dibromide]",31 ± 2.3
5,"C[n+]1ccccc1C=NO [Compound 2-PAM, 2-pralidoxime, reference compound]",17
6,"ON=Cc1cccc[n+]1CCCCCC[n+]1ccccc1C=NO [Compound 3a, 1,6-Hexylene-bis-N,N'-2-pyridinium aldoxime dichloride]",67 ± 0.8
7,"ON=Cc1cccc[n+]1CCCCCCC[n+]1ccccc1C=NO [Compound 3b, 1,7-Heptylene-bis-N,N'-2-pyridiniumaldoxime dichloride]",80 ± 3.7
8,"ON=Cc1cccc[n+]1CCCCCCCC[n+]1ccccc1C=NO [Compound 3c, 1,8-Octylene-bis-N,N'-2-pyridiniumaldoxime dichloride]",69 ± 4.7
9,"ON=Cc1cccc[n+]1CCCCCCCCC[n+]1ccccc1C=NO [Compound 3d, 1,9-Nonylene-bis-N,N'-2-pyridiniumaldoxime dichloride]",58 ± 0.5

# — patent US5929093A, “Bifunctional acetylcholinesterase reactivators” (priority 1997, dated 1999)
